Experimental data published in patent publication US20030124068A1, “Oral preparation” (priority 2000, published 2003).

Columns and labels:
[1] = Dissolving capacity (HAP or FAP dissolving and CaF2 dissolving); type: physicochemical; settings: 1M aqueous solution of the acid containing 23% sodium fluoride, pH 4 with sodium hydroxide; diluted to 30 wt. %, stirred 24 hours with HAP, FAP, CaF2 powder
Experimental: Dissolving capacity was measured in the following manner. Described specifically, the preparation is diluted to 30 wt. % with deionized water. The phosphorus and calcium concentrations in the solution were each determined in advance by using a calorimetric reagent and they were subtracted later. To 100 ml of the diluted solution were added hydroxyapatite (HAP), fluorapatite (FAP) and CAF2, each in the powdery form. The resulting mixture was stirred for 24 hours by a magnetic stirrer and the reaction mixture was filtered to remove the solid matter. The phosphorus and calcium concentrations in the solution were determined by a calorimetric reagent.
As the calorimetric reagents for calcium and phosphorus, Calcium Test Wako (for determination of calcium, product of Wako Pure Chemicals) and P Test Wako (for determination of inorganic phosphorus, product of Wako Pure Chemicals) were employed, respectively.

[2] = test system: cow tooth (having a mirror polished surface); test: Whitening effect on immersed cow tooth, judged from photographs by a panel of 20 experts; settings: 1M aqueous solution of the acid containing 23% sodium fluoride, pH 4; cow tooth immersed 24 hours
Experimental: Using acids different in pKa, 1M aqueous solutions containing 23% sodium fluoride were prepared, followed by adjustment to pH 4 with sodium hydroxide. After measuring their dissolving capacity, a cow tooth (having a mirror polished surface), which had been photographed in advance, was immersed in each solution for 24 hours. After the treatment, the tooth was taken out from the solution and photographed again. The color of the tooth before immersion was compared with that after immersion. The comparison was made as follows: A panel of 20 experts was asked to see the photographs of the tooth before and after treatment and to evaluate it as ◯ when the teeth was whitened after the treatment, while as × when no change in color was recognized. Upon evaluation, the tooth which was whitened but lost its gloss was evaluated as ×. The preparation evaluated as ◯ by at least a half of the experts was judged effective and the others were judged ineffective.
Toothpastes as shown in Table 3 were prepared in a conventional manner. Dissolving capacity of each of their 30% aqueous solutions was measured as in Example 1. Their whitening effect was measured also as in Example 1 (by immersing in the toothpaste for 24 hours).

[3] = 25° C.; acid added; cited from earlier work

Dissolving capacity [1]	SMILES	Whitening effect [2]	pKa [3]
∘	CC(=O)O [Acetic acid]	∘	
∘	CC(O)C(=O)O (centres unmarked) [Lactic acid]	∘	
∘	O=C(O)CC(O)C(=O)O (centres unmarked) [Malic acid]	∘	
∘	O=P(O)(O)O [Phosphoric acid, reference compound]		

More lines, now with the values behind:

SMILES	Dissolving capacity [1]	Whitening effect [2]	pKa [3]
O=C(O)CC(O)(CC(=O)O)C(=O)O [Citric acid]	∘	∘	2.9
Cl [Hydrochloric acid, reference compound]	∘		
O=S(=O)(O)O [Sulfuric acid, reference compound]	∘		
O=C(O)C(O)C(O)C(=O)O (centres unmarked) [Tartaric acid]		∘	2.99
